Measurements as given in patent US10265329B2, “Altering steroid metabolism for treatment of steroid-dependent disease” (THE CLEVELAND CLINIC FOUNDATION, priority 2015, dated 2019).
pIC50: −log10 of the molar value.

Legend:
[1] = target: T1, wild-type AR (LAPC4) (Homo sapiens, UniProt P10275); test: AR competition assay with [3H]-R1881 in LAPC4 cells; type: binding; details: for affinity for wild-type AR: [3H]-R1881, 30 min
T1 construct: endogenous in cells; host or cells: LAPC4
T1 sequence (P10275 1-920): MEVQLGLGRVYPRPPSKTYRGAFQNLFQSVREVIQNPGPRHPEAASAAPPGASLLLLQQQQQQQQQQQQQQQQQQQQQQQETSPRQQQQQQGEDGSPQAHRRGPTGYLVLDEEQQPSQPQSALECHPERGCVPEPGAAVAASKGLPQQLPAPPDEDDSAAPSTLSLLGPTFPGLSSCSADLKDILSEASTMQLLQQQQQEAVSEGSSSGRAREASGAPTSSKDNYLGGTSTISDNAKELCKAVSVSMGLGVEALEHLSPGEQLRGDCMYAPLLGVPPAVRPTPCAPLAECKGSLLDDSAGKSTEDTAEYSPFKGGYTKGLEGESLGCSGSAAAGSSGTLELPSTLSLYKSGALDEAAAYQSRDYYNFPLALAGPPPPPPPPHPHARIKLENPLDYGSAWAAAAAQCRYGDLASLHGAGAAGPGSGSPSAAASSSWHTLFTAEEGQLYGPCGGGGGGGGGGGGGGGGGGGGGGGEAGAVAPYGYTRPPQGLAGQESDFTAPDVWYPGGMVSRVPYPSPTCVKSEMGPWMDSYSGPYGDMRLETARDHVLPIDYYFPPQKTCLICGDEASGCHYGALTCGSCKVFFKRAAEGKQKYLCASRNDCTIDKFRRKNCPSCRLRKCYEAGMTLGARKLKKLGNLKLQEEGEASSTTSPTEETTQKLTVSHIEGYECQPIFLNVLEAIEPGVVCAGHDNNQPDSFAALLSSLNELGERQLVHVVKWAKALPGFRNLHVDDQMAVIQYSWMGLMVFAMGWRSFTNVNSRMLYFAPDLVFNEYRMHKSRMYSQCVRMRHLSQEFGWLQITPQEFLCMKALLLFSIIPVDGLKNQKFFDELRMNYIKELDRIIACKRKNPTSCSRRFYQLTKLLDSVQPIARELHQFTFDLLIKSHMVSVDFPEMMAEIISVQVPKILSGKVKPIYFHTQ
Method: Cells were cultured in serum-free medium for 48 h and then treated with [^3H]-R1881 and the indicated concentrations of D4A, Abi, enzalutamide, R1881 or bicalutamide for 30 min. Cells were washed with 1×PBS 4 times and 0.9% NaCl solution twice before lysis with RIPA buffer.
Cells were starved with phenol red-free and serum free-medium for at least 48 h and then treated with [^3H]-R1881 and the indicated concentrations of drugs for 30 min. Cells were washed thoroughly with PBS and then lysed with […].

[2] = Phase II clinical trial NCT01393730: serum Abi metabolites before and after dutasteride; type: in vivo, human; details: for mean serum concentration, cycle 3: Abi acetate 1000 mg daily plus prednisone alone; for mean serum concentration, cycle 3 / mean serum concentration, cycle 4: 16 patients; for mean serum concentration, cycle 4: after addition of dutasteride 3.5 mg once daily
Method: Twelve patients with CRPC undergoing treatment with Abi acetate at Cleveland Clinic were consented under an Institutional Review Board—approved protocol (Case 7813). Blood was collected using Vacutainer Plus serum blood collection tubes (#BD367814, Becton Dickenson, Franklin Lakes, N.J.), between 1 and 16 hours after the 1000 mg daily dose of Abi acetate was administered, and allowed to clot. Tubes were centrifuged at 2500 RPM or 1430×g for 10 minutes. Serum aliquots were frozen at −80° C. until processing. To study the effect of dutasteride on Abi metabolism, serum samples were collected from patients treated on a phase II clinical trial at Dana-Farber Cancer Institute (NCT01393730). Each patient received Abi acetate (1,000 mg daily) plus prednisone (5 mg daily) for 2 cycles (8 weeks) and then additional treatment with dutasteride ([…]) was initiated. Samples were collected on treatment with Abi alone and after addition of dutasteride (start of cycles 3, 4 and 7). Seventeen patients treated at this institution on this clinical trial had blood available from all 3 time points. One patient had Abi concentrations that were under the limit of detection and was later determine to have stopped treatment because of adverse effects and was therefore not included in the analysis. Drug metabolites and internal standard (d4-abiraterone, Toronto Research Chemicals Inc, Ontario Canada) were extracted from 100 μL of patient serum with methyl tert-butyl ether (Sigma Aldrich, St. Louis, Mo.), evaporated under a stream of nitrogen gas and reconstituted in methanol:water (50:50) prior to mass spectrometry analysis. Standard curves were generated using human serum spiked with known concentrations of each metabolite to enable determination of unknown concentrations in patient samples
Samples were analyzed on a ultra high-performance liquid chromatography station (Shimadzu, Kyoto, Japan) with a DGU-20A3R degasser, 2 LC-30AD pumps, a SIL-30AC autosampler, a CTO-10A column oven and a CBM-20A system controller in tandem with a QTRAP 5500 mass spectrometer (AB Sciex, Framingham, Mass.). Drug metabolites were ionized using electrospray ionization in positive ion mode. Multiple reaction monitoring was used to follow mass transitions for Abi, IS, and the metabolites (Table 1). Due to the similarity in structure and mass transitions for the metabolites it was necessary to separate them with chromatography. Separation of drug metabolites was achieved using a mobile phase consisting of LC-MS grade (Fisher) methanol: acetonitrile: water:formic acid (39:26:34:1) at a flow rate of 0.2 ml/min., and C18 analytical column; Zorbax Eclipse plus 150×2.1 mm, 3.5 μm (Agilent, Santa Clara, Calif.).

Row | SMILES | affinity for wild-type AR [1] | mean serum concentration, cycle 3 [2] | mean serum concentration, cycle 4 [2] | pIC50 ([1]; competition with 0.1 nM [3H]-R1881, read-out: IC50, affinity for wild-type AR) | decline in mean serum concentration after the addition of dutasteride ([2]; cycle 3 vs. cycle 4)
1 | C[C@]12CCC(=O)C[C@@H]1CC[C@@H]1[C@@H]2CC[C@]2(C)C(c3cccnc3)=CC[C@@H]12 [Compound 5α-Abi, 17-(3-pyridyl)-5α-androsta-16-ene-3-one] | comparable to that of D4A | 25.8 nM | 2.9 nM |  | 
2 | C[C@]12CCC(=O)C=C1CC[C@@H]1[C@@H]2CC[C@]2(C)C(c3cccnc3)=CC[C@@H]12 [Compound D4A, 17-(3-Pyridyl)androsta-4,16-dien-3-one] |  | 9.9 nM | 18.2 nM | 8.10 | 
3 | C[C@]12CC[C@@H](O)C[C@@H]1CC[C@@H]1[C@@H]2CC[C@]2(C)C(c3cccnc3)=CC[C@@H]12 [Compound 3α-OH-5α-Abi, 17-(3-pyridyl)-5α-androsta-16-ene-3α-ol] | lower |  |  |  | 92%
